US9718869B2, “Peptide-based compounds and uses thereof to treat beta-amyloid accumulation” (MANUS PHARMACEUTICALS (CANADA) LTD., priority 2012, dated 2017)
“And” between values parts separate entries of the source, which are not always exact repeats. Equal values may be shown once. “Also recorded” adds a separate entry of the source. Read-outs that look alike come from different tables or passages of the source. No end group written: not given here.

Key:
bulbectomized (BE) mice [1] = assay: Morris water maze spatial memory test, bulbectomized mice immunized with KLH conjugates of NP-1 fragments (Example 2); type: in vivo, NMRI mice; conditions: KLH conjugate, 1st immunization CFA, 2nd IFA, 0.1 mg/mouse
Description: NMRI mice (see Example 1) were immunized with peptides conjugated to snail keyhole limpet hemocyanin (KLH).
In this study, a scheme with a double introduction of peptides into mice with complete Freund's adjuvant (CFA) for the first immunization and incomplete Freund's adjuvant (IFA) for the second immunization was used. Between the first and second immunization a bulbectomy was performed. After the second immunization, one month after bulbectomy, the mice's state of spatial memory was tested, after which the mice were put down and their blood and cerebrospinal fluid were collected to determine their level of antipeptide antibodies.
To prepare the peptide conjugates with KLH, 0.75 mg of peptide was dissolved in 0.65 ml of KLH in PBS with a protein concentration of 5.8 mg/ml and stirred for an hour while adding 38 μl of 2.5% glutaraldehyde solution in PBS. The resulting solution was stirred for 15 hours and dialyzed against PBS for 20 hours.
Tables 12 and 13 present the results of statistical analysis of spatial memory test data using univariate analysis (one-way ANOVA), to judge the ability of the animal to distinguish sections of the Morris water maze.

bulbectomized mice = assay: Morris water maze spatial memory test, bulbectomized mice immunized with (FR-3-NP-1)2-Lys-OH / (R-2-FR-3-NP-1)2-Lys-OH in IFA (Example 3); type: in vivo, NMRI mice; conditions: four immunizations with IFA; for Number of visits to the training/rescue compartment (in words) / Time spent in the training/rescue compartment (in words): BE mice
Description: Immunization was carried out in four stages.
Each group consisted of 5-8 mice.

bulbectomized (BE) mice [2] = assay: Morris water maze spatial memory test, bulbectomized mice immunized with NP-1 / R-1-NP-1 in IFA (Example 1); type: in vivo, NMRI mice; conditions: for Ratio of sector visits to total number of all visits, sector 1 / Ratio of sector visits to total number of all visits, sector 2 / Ratio of sector visits to total number of all visits, sector 3 (training sector with platform) / Ratio of sector visits to total number of all visits, sector 4 / Time spent in sector 1 / Time spent in sector 2 / Time spent in sector 3 (training sector with platform) / Time spent in sector 4: BE (bulbectomized) mice, 4 immunizations with IFA, 1 min memory test; for Effect of immunization on spatial memory of BE mice (in words): immunization with IFA, no complete Freund's adjuvant
Description: The immunization was carried out in four stages.
This method enables separate evaluation of learning and memory.

[3] = system: animals with experimentally induced AD; conditions: cited from earlier work
β-amyloid (1-40) [4] = conditions: mouse, in vivo
Description: (§1) To collect brain structures to determine the biochemical level of β-amyloid, mice were decapitated and the brain was removed in the cold. The cortex was removed by scalpel from both hemispheres, the hippocampus was bilaterally removed, the probes were placed in labeled plastic test tubes that were frozen at −80° C. and stored in a freezer until the biochemical study of the level of β-amyloid.
(§2) Biochemical identification of β-amyloid (1-40) by enzyme immunoassay was performed as follows: samples of the cortex and hippocampus, which were stored at −80° C. after collection, were weighed, thawed at room temperature, and then homogenized in a solution of 2% CHAPS 20 mM Tris-HCl (pH 7.7) in the presence of protease inhibitors (10 μg/ml leupeptin, 10 μg/ml aprotinin and 10 μg/ml AEBSF) in a volume calculated for each sample (4 ml of solution per 1 g of tissue), using a RT-12 tissue microgrinder in a glass beaker for the homogenization using a ground-glass pestle. Homogenates were centrifuged at 21,000 g at 4° C. for 30 min. Selected supernatants were stored at −80° C. and thawed immediately prior to the immunoassay analysis.
Another part of the samples were homogenized in 5 M guanidine-HCl solution of 50 mM Tris-HCl (pH 8.0), in a volume calculated for each sample (400 mcl of solution per 50 mg of tissue). […]

sham operated (SO) mice = conditions: mouse, in vivo
Description: Experiments were performed on NMRI mice weighing 20-30 g. Initiation of Alzheimer's type neurodegenerative process was caused by the removal of the animal's olfactory bulb (bulbectomy). The operation was performed under sterile conditions under nembutal anesthesia (40 mg/kg). For local anaesthesia during scalping, a subcutaneous injection of 0.5% solution of novocaine was used. […] A group of animals to serve as control was sham-operated (SO); these animals were subjected to the same procedure but without removal of the olfactory bulbs. After surgery all animals were injected with “Bitsillin 5” antibiotic into the muscles of the hind paw at a dose of 6000 units for the prevention of infection. Upon completion of behavioral experiments, morphological studies of animal brains were conducted to ensure complete removal of olfactory bulbs.
The state of spatial memory was assessed after mice had developed spatial skills in the Morris water maze, which combines training in the formation of active avoidance and the ability to navigate in space. This method enables separate evaluation of learning and memory.
The experimental chamber was a plastic pool of dimensions 100×60×30 cm, filled with water at a temperature of 23 degrees Celsius. […] The water was clouded with milk so that animals could not visually detect the rescue platform.
All mice were pre-tested for the ability to swim and absence of an original sector preference in the water maze. The goal of the education was to have mice in one minute find the underwater platform and remember its location. Training was conducted in four sessions every day for five days, and the latency period for finding the platform was recorded for every session. 24 hours after completion of training, the level of the animal's spatial memory in the absence of a rescue platform was tested for one minute. Two indicators were used in analyzing the results: the number of visits to each sector of the maze and time spent in each sector.
Two-factor analysis (general ANOVA) was used for statistical analysis of behavioral data. Post-hoc analysis was performed using the criterion of LSD (least significant difference). The reliability of the results was also evaluated using two-tailed Student's t-test.

β-amyloid (1-40) [5] = assay: ELISA of β-amyloid (1-40) in brain (cortex+hippocampus) of bulbectomized immunized mice; type: in vivo, NMRI mice; conditions: for Average level of βA / Individual levels of βA: BE (bulbectomized) mice, cortex+hippocampus; for Individual levels of βA: one value per mouse
Description: as §1, §2
Another part of the samples were homogenized in 5 M guanidine-HCl solution of 50 mM Tris-HCl (pH 8.0), in a volume calculated for each sample (400 mcl of solution per 50 mg of tissue). The samples were stirred for 3-4 hours at room temperature, then diluted in BSAT-DPBS (5% BSA, 0.03% Tween-20) buffer, centrifuged at 21,000 g at 4° C. for 30 min, after which the supernatants were collected.
The immunosorbent assay was performed using the instructions on the ELISA for the determination of β-amyloid (1-40) (Aβ40) mouse (ELISA kit mouse Aβ40, Invitrogen).
After testing the memory of all groups of animals, brain perfusion was carried out in the cold under deep anaesthesia, and individual samples of brain tissue (cortex+hippocampus) were collected, which were stored in a freezer at a temperature of −80° C. until biochemical studies.

Substance: IPGKRSERFY [FR-2-NP-1]
- Ratio of sector visits to total number of all visits, sector 1 (bulbectomized (BE) mice [1]): 17.17 ± 2.32 percentage
- Ratio of sector visits to total number of all visits, sector 2 (bulbectomized (BE) mice [1]): 34.5 ± 2.05 percentage
- Ratio of sector visits to total number of all visits, sector 3 (training sector with platform) (bulbectomized (BE) mice [1]): 35.51 ± 2.64 percentage
- Ratio of sector visits to total number of all visits, sector 4 (bulbectomized (BE) mice [1]): 13.67 ± 2.53 percentage
- Time spent in sector 1 (bulbectomized (BE) mice [1]): 12.33 ± 2.38 s
- Time spent in sector 2 (bulbectomized (BE) mice [1]): 18.33 ± 1.82 s
- Time spent in sector 3 (training sector with platform) (bulbectomized (BE) mice [1]): 20.1 ± 1.86 s
- Time spent in sector 4 (bulbectomized (BE) mice [1]): 8.33 ± 1.98 s

Substance: Ser-Glu-Arg-Phe-Tyr-Glu-Cys-Cys-Lys-Glu-Lys(Ser-Glu-Arg-Phe-Tyr-Glu-Cys-Cys-Lys-Glu)-OH [(FR-3-NP-1)2-Lys-OH]
- Number of visits to the training/rescue compartment (in words) (bulbectomized mice): much worse
- Time spent in the training/rescue compartment (in words) (bulbectomized mice): much worse
- Effect of immunization on spatial memory of BE mice (in words) (bulbectomized mice): only a slight tendency towards improvement of spatial memory

Substance: EWDLVGIPGKRSERFYECCKE (cysteine pairing not given here) [NP-1, 2372355, reference compound]
- Ratio of sector visits to total number of all visits, sector 1 (bulbectomized (BE) mice [2]): 26.6 ± 1.54 percentage
- Ratio of sector visits to total number of all visits, sector 2 (bulbectomized (BE) mice [2]): 27.8 ± 2.06 percentage
- Ratio of sector visits to total number of all visits, sector 3 (training sector with platform) (bulbectomized (BE) mice [2]): 24.2 ± 0.49 percentage
- Ratio of sector visits to total number of all visits, sector 4 (bulbectomized (BE) mice [2]): 21.2 ± 1.6 percentage
- Time spent in sector 1 (bulbectomized (BE) mice [2]): 17 ± 0.84 s
- Time spent in sector 2 (bulbectomized (BE) mice [2]): 15.2 ± 1.69 s
- Time spent in sector 3 (training sector with platform) (bulbectomized (BE) mice [2]): 16 ± 11.14 s
- Time spent in sector 4 (bulbectomized (BE) mice [2]): 11.8 ± 1.91 s
- Effect of immunization on spatial memory of BE mice (in words) (bulbectomized (BE) mice [2]): not capable of recalling the training sector; also recorded: did not improve their memory; also recorded: did not show protective activity; also recorded: did not exhibit memory protection
- Brain levels of βA (in words) ([3]; animals with experimentally induced AD): prevented an increase in brain levels of βA
- Antibodies produced by immunization (in words) ([3]; in vivo): produced antibodies capable of binding to the type α7 AChRs
- Spatial memory in healthy animals (in words) ([3]; in vivo): did not lead to deterioration of spatial memory
- Average level of βA (β-amyloid (1-40) [4]): 3.22 ± 0.38 ng/g tissue
- Ratio of sector visits to total number of all visits, sector 1 (sham operated (SO) mice): 14.5 ± 1.89 percentage
- Ratio of sector visits to total number of all visits, sector 2 (sham operated (SO) mice): 27.5 ± 2.1 percentage
- Ratio of sector visits to total number of all visits, sector 3 (training sector with platform) (sham operated (SO) mice): 40.75 ± 3.15 percentage
- Ratio of sector visits to total number of all visits, sector 4 (sham operated (SO) mice): 18 ± 2.08 percentage
- Time spent in sector 1 (sham operated (SO) mice): 10.5 ± 2.25 s
- Time spent in sector 2 (sham operated (SO) mice): 13 ± 1.68 s
- Time spent in sector 3 (training sector with platform) (sham operated (SO) mice): 27.5 ± 1.5 s
- Time spent in sector 4 (sham operated (SO) mice): 9 ± 1.58 s
- Change of βA level versus non-immunized BE mice (in words) (β-amyloid (1-40) [5]): significant reduction of β-amyloid
- Average level of βA (β-amyloid (1-40) [5]): 2.44 ± 0.38 ng/g tissue
- Individual levels of βA (β-amyloid (1-40) [5]): 3.039 ng/g tissue and 2.316 ng/g tissue and 3.324 ng/g tissue and 1.115 ng/g tissue and 2.408 ng/g tissue

Substance: SERFYECCKE (cysteine pairing not given here) [FR-3-NP-1]
- Ratio of sector visits to total number of all visits, sector 1 (bulbectomized (BE) mice [1]): 20.75 ± 1.25 percentage
- Ratio of sector visits to total number of all visits, sector 2 (bulbectomized (BE) mice [1]): 26.25 ± 2.95 percentage
- Ratio of sector visits to total number of all visits, sector 3 (training sector with platform) (bulbectomized (BE) mice [1]): 32.0 ± 4.3 percentage
- Ratio of sector visits to total number of all visits, sector 4 (bulbectomized (BE) mice [1]): 21.0 ± 2.38 percentage
- Time spent in sector 1 (bulbectomized (BE) mice [1]): 13.0 ± 1.91 s
- Time spent in sector 2 (bulbectomized (BE) mice [1]): 13.75 ± 2.1 s
- Time spent in sector 3 (training sector with platform) (bulbectomized (BE) mice [1]): 25.25 ± 3.47 s
- Time spent in sector 4 (bulbectomized (BE) mice [1]): 8.0 ± 1.58 s

Substance: (cyclo(Ala-Glu)(Trp-Ser-Glu-Arg-Phe-Tyr-Glu-Cys-Cys-Lys-Glu))2-Lys-OH ({cyclo(Ala-Glu)}-WSERFYECCKEK-OH; cysteine pairing not given here; also: dimer: two chains joined on Lys-OH) [(R-2-FR-3-NP-1)2-Lys-OH]
- Number of visits to the training/rescue compartment (in words) (bulbectomized mice): preferred the second and third compartments
- Time spent in the training/rescue compartment (in words) (bulbectomized mice): selected the third compartment with statistical significance

Substance: cyclo(Ala-Glu)-Trp-(Glu-Trp-Asp-Leu-Val-Gly-Ile-Pro-Gly-Lys-Arg-Ser-Glu-Arg-Phe-Tyr-Cys-Cys-Lys-Glu) ({cyclo(Ala-Glu)}-WEWDLVGIPGKRSERFYCCKE; cysteine pairing not given here) [R-1-NP-1]
- Ratio of sector visits to total number of all visits, sector 1 (bulbectomized (BE) mice [2]): 20.67 ± 2.2 percentage
- Ratio of sector visits to total number of all visits, sector 2 (bulbectomized (BE) mice [2]): 27 ± 1.46 percentage
- Ratio of sector visits to total number of all visits, sector 3 (training sector with platform) (bulbectomized (BE) mice [2]): 34.33 ± 2.44 percentage
- Ratio of sector visits to total number of all visits, sector 4 (bulbectomized (BE) mice [2]): 18.17 ± 1.49 percentage
- Time spent in sector 1 (bulbectomized (BE) mice [2]): 12.17 ± 2.06 s
- Time spent in sector 2 (bulbectomized (BE) mice [2]): 13.67 ± 1.5 s
- Time spent in sector 3 (training sector with platform) (bulbectomized (BE) mice [2]): 25.33 ± 4.02 s
- Time spent in sector 4 (bulbectomized (BE) mice [2]): 8.83 ± 1.85 s
- Effect of immunization on spatial memory of BE mice (in words) (bulbectomized (BE) mice [2]): showed improvement of spatial memory; also recorded: resulted in improved memory; also recorded: protects the spatial memory; also recorded: led to memory protection
- Average level of βA (β-amyloid (1-40) [4]): 2.78 ± 0.21 ng/g tissue
- Ratio of sector visits to total number of all visits, sector 1 (sham operated (SO) mice): 12.4 ± 2.7 percentage
- Ratio of sector visits to total number of all visits, sector 2 (sham operated (SO) mice): 26 ± 2.86 percentage
- Ratio of sector visits to total number of all visits, sector 3 (training sector with platform) (sham operated (SO) mice): 40 ± 2.19 percentage
- Ratio of sector visits to total number of all visits, sector 4 (sham operated (SO) mice): 22.2 ± 3.18 percentage
- Time spent in sector 1 (sham operated (SO) mice): 7.2 ± 1.83 s
- Time spent in sector 2 (sham operated (SO) mice): 14 ± 2.43 s
- Time spent in sector 3 (training sector with platform) (sham operated (SO) mice): 30.41 ± 2.42 s
- Time spent in sector 4 (sham operated (SO) mice): 8.4 ± 1.96 s
- Change of βA level versus non-immunized BE mice (in words) (β-amyloid (1-40) [5]): significant reduction of β-amyloid
- Average level of βA (β-amyloid (1-40) [5]): 2.985 ± 0.2 ng/g tissue
- Individual levels of βA (β-amyloid (1-40) [5]): 2.525 ng/g tissue and 3.704 ng/g tissue and 3.705 ng/g tissue and 2.398 ng/g tissue and 2.91 ng/g tissue and 2.77 ng/g tissue and 2.882 ng/g tissue

Substance: EWDLVGIPGKRSERFY [FR-1-NP-1]
- Ratio of sector visits to total number of all visits, sector 1 (bulbectomized (BE) mice [1]): 22.17 ± 2.63 percentage
- Ratio of sector visits to total number of all visits, sector 2 (bulbectomized (BE) mice [1]): 30.17 ± 1.49 percentage
- Ratio of sector visits to total number of all visits, sector 3 (training sector with platform) (bulbectomized (BE) mice [1]): 30.83 ± 2.32 percentage
- Ratio of sector visits to total number of all visits, sector 4 (bulbectomized (BE) mice [1]): 18.33 ± 1.74 percentage
- Time spent in sector 1 (bulbectomized (BE) mice [1]): 15.83 ± 2.88 s
- Time spent in sector 2 (bulbectomized (BE) mice [1]): 17.0 ± 2.21 s
- Time spent in sector 3 (training sector with platform) (bulbectomized (BE) mice [1]): 18.33 ± 2.04 s
- Time spent in sector 4 (bulbectomized (BE) mice [1]): 8.83 ± 0.7 s
